The source of these data is patent US20160243015A1, “SKIN LIGHTENING COMPOSITION” (Conopco, Inc., d/b/a UNILEVER, priority 2013, published 2016).

The structures appear in SMILES notation.

In general, inhibition refers to the change of the read-out against control, counted positive when it falls.

For assay [1], the target named is T1, human tyrosinase enzyme (Homo sapiens, UniProt P14679).
T1 construct: Human neonatal darkly pigmented melanocytes lysate was used as a source of tyrosinase enzyme; host or cells: human neonatal darkly pigmented melanocytes (crude NP-40 lysate supernatant)
T1 sequence (P14679 19-529): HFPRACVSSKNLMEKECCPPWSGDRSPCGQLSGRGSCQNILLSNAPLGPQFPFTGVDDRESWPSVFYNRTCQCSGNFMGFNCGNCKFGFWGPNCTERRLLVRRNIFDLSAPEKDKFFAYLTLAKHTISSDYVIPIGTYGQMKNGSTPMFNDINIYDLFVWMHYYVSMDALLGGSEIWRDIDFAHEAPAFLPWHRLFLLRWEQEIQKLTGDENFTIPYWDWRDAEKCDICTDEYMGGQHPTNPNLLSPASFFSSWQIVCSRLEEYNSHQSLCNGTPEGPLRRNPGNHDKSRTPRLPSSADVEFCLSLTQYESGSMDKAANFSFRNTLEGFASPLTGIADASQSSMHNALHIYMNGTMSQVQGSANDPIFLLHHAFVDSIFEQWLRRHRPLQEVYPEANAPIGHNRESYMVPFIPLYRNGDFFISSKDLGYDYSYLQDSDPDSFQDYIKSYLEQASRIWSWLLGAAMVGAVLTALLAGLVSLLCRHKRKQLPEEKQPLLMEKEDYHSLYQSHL
Nature of the assay: Tyrosinase inhibition assay (melanocyte lysate, L-DOPA/MBTH). In kind it is biochemical.
Protocol: Human neonatal darkly pigmented melanocytes lysate was used as a source of tyrosinase enzyme. The human melanocyte cells were purchased from Cascade Biologics (Code: C-202-5C) and cultured using standard methods. A confluent 25 cm^2 flask of melanocytes was washed with 2 ml of ice-cold PBS (phosphate buffered saline), followed by incubation with 1 ml of (0.025% w/v) Trypsin (0.01% w/v) EDTA (ethylenediamine tetraacetic acid) solution for 2 minutes at 37° C. to release the adherent cells. Trypsin was neutralized by the addition of 3 ml ‘neutralizer’ solution (sterile PBS solution containing 0.5% w/vnewborn bovine serum). […] The protein content in the lysate was measured by the Bradford reagent method (bovine serum albumin standard). […]
The solution phase tyrosinase activity assay was initiated by mixing 50 μl of 50 mM potassium phosphate buffer (pH 6.8), 60 μl of 10 mM MBTH (3-Methyl-2-benzothiazolinonhydrazon hydrochloride hydrate) in 10 mM potassium phosphate buffer, 30 μl of 10 mM L-DOPA (L-3,4-dihydroxyphenylalanine) in 10 mM potassium phosphate buffer, 4 μl of melanocytic cell extract (about 2 μg/μl protein), and 6 μl of distilled water (to make up the volume to 150 μl), and incubated for about 1 hour at 37° C. […] Then 200 μl of the supernatant was transferred to a 96-well flat-bottom plate, and the OD (optical density) read in a TECAN plate-reader (540 nm transmission). […]

Assay [2] deals with Melanoderm cultures (human keratinocytes and melanocytes), melanin production. Nature of the assay: Assay of pigment production by Living Skin Equivalents (Melanoderm). Format: cell-based. The arrangement: inhibition: dose or concentration left out as unconfirmed. Conditions: 14 days, melanin normalized to protein levels; for % inhibition of melanin production compared to vehicle control: 10 μM; for inhibition: Homo sapiens, 336 h, read-out: % inhibition of melanin production compared to vehicle control. From the text: Assay of pigment production by Living Skin Equivalents (Melanoderms™)
So called reconstructed pigmented ‘skin’ cultures containing keratinocytes and melanocytes are commercially available and, for example, can be purchased from MatTek Corp, 200, Homer Avenue, Ashland, Mass., USA, under the trade name Melanoderm™. Melanoderms™ (catalogue reference MEL-300) containing melanocytes from […] donor skin were maintained in EPI-100-NMM113 media following the manufacturer's instructions and using standard methods for the maintenance of cultured mammalian cells under aseptic conditions. The Melanoderm™ cultures were treated with test agents for a total of 14 days. During the 14 day culture period the melanocytes in the Melanoderm™ cultures synthesise melanin in specialised vesicular structures called melanosomes. The pigmented melanosomes are transferred to the adjacent keratinocytes and the transferred-melanosomes tend to accumulate over the nucleus of the keratinocytes. This process is the same as occurs in skin in vivo and accordingly the Melanoderm™ culture is considered to be a very good test ‘skin tissue’ to mimic the effect of the skin pigmentation process in vivo. A compound that leads to a reduction in melanin production in the Melanoderm™ culture over 14 days by 10% or more is considered to have a positive pigment reducing effect. It is important that the reduction in pigment occurs without substantive loss of cell viability such that the inhibitory effect of the test compound is due to its biological function rather than due to cell toxicity.
Culture media changes and re-dosing of compounds at selected concentrations took place every 2 or 3 days during the test period. Melanoderm™ cultures were also treated with control materials including the vehicle (dimethylsulphoxide (DMSO)) used to dissolve the test material and a positive control material known to lead to the synthesis of reduced amounts of melanin in the cultures. 4-ethylresorcinol was used as a positive control. After 14 days culture, transmitted-light microscopy images were captured for every culture using a Leica DM IL microscope at ×20 magnification.
The cell viability of the cultures was assessed using the so called WST-1 (Water Soluble Tetrazolium Salt-1) assay purchased from Roche Applied Science and following the manufacturer's instructions. The stable tetrazolium salt WST-1 is cleaved to a soluble formazan dye by a complex cellular mechanism that occurs primarily at the cell surface. This bioreduction is largely dependent on the glycolytic production of NADPH in viable cells. Therefore, the amount of soluble formazan dye formed in the culture medium directly correlates to the number of metabolically active cells in the culture. Cultures were incubated with WST-1 in the medium for 1 hour and production of formazan measured at 450 nm using a spectrophotometer plate reader, e.g. a BMG Labtech FLUOstar plate reader. Cultures were considered ‘viable’ if they generated greater than 80% of the control value of formazan product. Subsequently the culture was washed briefly in phosphate buffer solution (PBS) and total melanin and protein extracted together from each culture using 250 μl Solvable™ (Perkin Elmer product 6NE9100) reagent at 60° C. overnight as recommended by the manufacturer. The total protein content using a sample of the extracts was determined using the so called BCA (bicinchoninic acid) assay. The BCA assay may be purchased from Pierce Chemical Company and conducted following the manufacturer's instructions. Melanin was determined by measuring the absorbance at 485 nm, for example using a BMG Labtech FLUOstar plate reader. The amount of melanin extracted from each culture was determined by reference to a standard synthetic-melanin curve (Sigma Aldrich Chemical Company catalogue reference M8631). […]

Turning to `CCc1ccc(O)cc1O` [4-ethyl resorcinol], the inhibition at 10 µM in assay [1] was determined as 29%.

`O=C(COc1ccccc1)NC(=S)Nc1ccc(I)cn1` [NC-0475, N-[[(5-iodo-2-pyridinyl)-amino]-thioxomethyl]-2-phenoxyacetamide]: in assay [2], the “% inhibition of melanin production compared to vehicle control” value (“% inhibition of melanin production” for short) came out at 53% and the inhibition was greater than 50%.

With `O=C(COc1ccccc1)NC(=S)Nc1ccc(Cl)cn1` [S12, N-[[(5-chloro-2-pyridinyl)-amino]-thioxomethyl]-2-phenoxyacetamide], in assay [2], the “% inhibition of melanin production” value was found to be 47% and the inhibition lay in the range of 40 to 50%.

Take `Cc1ccc(OCC(=O)NC(=S)Nc2ccc(Cl)cn2)cc1` [S13, N-[[(5-chloro-2-pyridinyl)-amino]-thioxomethyl]-2-(4-methylphenoxy)-acetamide]: in assay [2], the “% inhibition of melanin production” value amounted to 35% and the inhibition was in the range of 30 to 40%.

As to `O=C(COc1ccccc1)NC(=S)Nc1ccccn1` [S14, N-[[2-pyridinylamino]-thioxomethyl]-2-phenoxyacetamide], in assay [2], the inhibition came to 10%.

Turning to `Cc1cc(OCC(=O)NC(=S)Nc2ccc(I)cn2)cc(C)c1Cl` [S15, N-[[(5-iodo-2-pyridinyl)-amino]-thioxomethyl]-2-(4-chloro-3,5-dimethylphenoxy)-acetamide], in assay [2], the “% inhibition of melanin production” value was 43% and the inhibition was in the range of 40 to 50%.

For `CC(C)c1ccc(OCC(=O)NC(=S)Nc2ccc(Cl)cn2)cc1` [S16, N-[[(5-chloro-2-pyridinyl)-amino]-thioxomethyl]-2-[4-(1-methylethyl)-phenoxy]-acetamide], in assay [2], the “% inhibition of melanin production” value is recorded as 38% and the inhibition lay within 30 to 40%.

On to `O=C(COc1ccc(Cl)cc1Cl)NC(=S)Nc1ccc(I)cn1` [S17, N-[[(5-iodo-2-pyridinyl)-amino]-thioxomethyl]-2-(2,4-dichlorophenoxy)-acetamide], for which, in assay [2], the “% inhibition of melanin production” value is given as 43% and the inhibition lay in the range of 40 to 50%.

As to `O=C(COc1ccc(Cl)cc1)NC(=S)Nc1ccc(I)cn1` [S18, N-[[(5-iodo-2-pyridinyl)-amino]-thioxomethyl]-2-(4-chlorophenoxy)-acetamide], in assay [2], the “% inhibition of melanin production” value was 28% and the inhibition lay in the range of 20 to 30%.

In the case of `CC(C)(C)c1ccc(OCC(=O)NC(=S)Nc2ccc(I)cn2)cc1` [S19, N-[[(5-iodo-2-pyridinyl)-amino]-thioxomethyl]-2-[4-(1,1-dimethylethyl)phenoxy]-acetamide], in assay [2], the “% inhibition of melanin production” value was found to be 22% and the inhibition was in the range of 20 to 30%.

For the compound `Cc1cccc(OCC(=O)NC(=S)Nc2ccc(I)cn2)c1` [S20, N-[[(5-iodo-2-pyridinyl)-amino]-thioxomethyl]-2-(3-methylphenoxy)-acetamide], in assay [2], the “% inhibition of melanin production” value came out at 22% and the inhibition lay in the range of 20 to 30%.

Turning to `Cc1nc(NC(=S)NC(=O)COc2ccccc2)ccc1I` [S21, N-[[(5-iodo-6-methyl-2-pyridiny)lamino]-thioxomethyl]-2-phenoxyacetamide], in assay [2], the “% inhibition of melanin production” value turned out to be 39% and the inhibition was 30 to 40%.
